From patent publication US20100016547A1, “Glycosilated Peptide and Medicine Comprising It as an Effective Ingredient” (priority 2005, published 2010)
Peptide text beside a SMILES is read from it. * marks the point of attachment. X1 = CC(=O)N[C@@H]1[C@@H](O)[C@H](O[C@@H]2O[C@H](CO)[C@H](O)[C@H](O)[C@H]2O)[C@@H](CO)O[C@H]1N*

Columns and labels:
[1] = biological target: T1, GLP-1 receptor (Homo sapiens, UniProt P43220)
Procedure: After being incubated at room temperature for 2 hours, the solution was filtered through a unifilter 96GF/C plate (Perkin-Elmer) pretreated with 1% polyethylenimine containing 0.5% BSA, washed with 25 mM HEPES buffer solution (pH 7.4) containing 0.5% BSA, and radioactivity remained on the filter was measured by a gamma counter (Top Counter; Perkin-Elmer).

[2] = biological target: T1, GLP-1 receptor; experiment: Assay for production of cAMP
Procedure: Assay for Production of cAMP
After stirring at room temperature for an hour, the cells were lysed with Triton X-100 (final concentration: 1%).
Quantity of cAMP was determined using cAMP Femtomolar Kit (CIS Bio International). The reaction solution (1 μL) was moved to a new 384-well plate and diluted by adding 9 μL of dilution buffer. Next, each 5 μL of cAMP-XL665 solution and anti-cAMP cryptate solution of the Kit was added, the mixture was incubated at room temperature for an hour, and time-resolved fluorescence was measured using RUBYstar (BMG LABTECH).

T1 sequence (P43220 24-463, species assumed): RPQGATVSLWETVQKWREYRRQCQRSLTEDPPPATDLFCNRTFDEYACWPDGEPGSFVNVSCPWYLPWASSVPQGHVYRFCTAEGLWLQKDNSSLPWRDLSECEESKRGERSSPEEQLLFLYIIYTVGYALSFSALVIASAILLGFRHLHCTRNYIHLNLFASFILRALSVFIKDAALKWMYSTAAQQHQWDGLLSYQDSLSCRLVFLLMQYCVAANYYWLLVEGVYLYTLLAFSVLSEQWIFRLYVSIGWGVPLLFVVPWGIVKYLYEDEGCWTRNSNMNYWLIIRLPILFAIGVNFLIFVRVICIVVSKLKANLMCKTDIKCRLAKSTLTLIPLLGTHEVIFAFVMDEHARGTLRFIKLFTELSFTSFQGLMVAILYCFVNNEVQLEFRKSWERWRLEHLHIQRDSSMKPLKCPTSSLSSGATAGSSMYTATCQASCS

IC50 [1] [nM]	EC50 [2] [nM]	Molecule
11	0.92	H-HAEGTFTSDVSSNLEGQAAKEFIAWLVKGR-NH2 [GL19N]
38	8.3	CC[C@H](C)[C@H](NC(=O)[C@H](Cc1ccccc1)NC(=O)[C@H](CCC(=O)O)NC(=O)[C@H](CCCCN)NC(=O)[C@H](C)NC(=O)[C@H](C)NC(=O)[C@H](CCC(N)=O)NC(=O)CNC(=O)[C@H](CCC(=O)O)NC(=O)[C@H](CC(C)C)NC(=O)[C@H](CC(=O)N[C@@H]1O[C@H](CO)[C@@H](O[C@@H]2O[C@H](CO)[C@H](O)[C@H](O)[C@H]2O)[C@H](O)[C@H]1NC(C)=O)NC(=O)[C@H](CO)NC(=O)[C@H](CO)NC(=O)[C@@H](NC(=O)[C@H](CC(=O)O)NC(=O)[C@H](CO)NC(=O)[C@@H](NC(=O)[C@H](Cc1ccccc1)NC(=O)[C@@H](NC(=O)CNC(=O)[C@H](CCC(=O)O)NC(=O)[C@H](C)NC(=O)[C@@H](N)Cc1c[nH]cn1)[C@@H](C)O)[C@@H](C)O)C(C)C)C(=O)N[C@@H](C)C(=O)N[C@@H](Cc1c[nH]c2ccccc12)C(=O)N[C@@H](CC(C)C)C(=O)N[C@H](C(=O)N[C@@H](CCCCN)C(=O)NCC(=O)N[C@@H](CCCNC(=N)N)C(N)=O)C(C)C [GL19NL] (H-HAEGTFTSDVSSD(X1)LEGQAAKEFIAWLVKGR-NH2; N-terminus assumed)
0.85	0.17	CC[C@H](C)[C@H](NC(=O)[C@H](Cc1ccccc1)NC(=O)[C@H](CCC(=O)O)NC(=O)[C@H](CCCCN)NC(=O)[C@H](C)NC(=O)[C@H](C)NC(=O)[C@H](CCC(N)=O)NC(=O)CNC(=O)[C@H](CCC(=O)O)NC(=O)[C@H](CC(C)C)NC(=O)[C@H](Cc1ccc(O)cc1)NC(=O)[C@H](CO)NC(=O)[C@H](CO)NC(=O)[C@@H](NC(=O)[C@H](CC(=O)O)NC(=O)[C@H](CO)NC(=O)[C@@H](NC(=O)[C@H](Cc1ccccc1)NC(=O)[C@@H](NC(=O)CNC(=O)[C@H](CCC(=O)O)NC(=O)[C@H](C)NC(=O)[C@@H](N)Cc1c[nH]cn1)[C@@H](C)O)[C@@H](C)O)C(C)C)C(=O)N[C@@H](C)C(=O)N[C@@H](Cc1c[nH]c2ccccc12)C(=O)N[C@@H](CC(C)C)C(=O)N[C@H](C(=O)N[C@@H](CC(=O)N[C@@H]1O[C@H](CO)[C@@H](O)[C@H](O)[C@H]1NC(C)=O)C(=O)NCC(=O)N[C@@H](CCCNC(=N)N)C(N)=O)C(C)C [GL34NG]
0.9	0.11	CC[C@H](C)[C@H](NC(=O)[C@H](Cc1ccccc1)NC(=O)[C@H](CCC(=O)O)NC(=O)[C@H](CCCCN)NC(=O)[C@H](C)NC(=O)[C@H](C)NC(=O)[C@H](CCC(N)=O)NC(=O)CNC(=O)[C@H](CCC(=O)O)NC(=O)[C@H](CC(C)C)NC(=O)[C@H](Cc1ccc(O)cc1)NC(=O)[C@H](CO)NC(=O)[C@H](CO)NC(=O)[C@@H](NC(=O)[C@H](CC(=O)O)NC(=O)[C@H](CO)NC(=O)[C@@H](NC(=O)[C@H](Cc1ccccc1)NC(=O)[C@@H](NC(=O)CNC(=O)[C@H](CCC(=O)O)NC(=O)[C@H](C)NC(=O)[C@@H](N)Cc1c[nH]cn1)[C@@H](C)O)[C@@H](C)O)C(C)C)C(=O)N[C@@H](C)C(=O)N[C@@H](Cc1c[nH]c2ccccc12)C(=O)N[C@@H](CC(C)C)C(=O)N[C@H](C(=O)N[C@@H](CC(=O)N[C@@H]1O[C@H](CO)[C@@H](O)[C@H](O)[C@H]1NC(C)=O)C(=O)NCC(=O)N[C@@H](CCCNC(=N)N)C(=O)N[C@@H](CC(=O)N[C@@H]1O[C@H](CO)[C@@H](O)[C@H](O)[C@H]1NC(C)=O)C(N)=O)C(C)C [GL3437NG]
21	1	CC[C@H](C)[C@H](NC(=O)[C@H](Cc1ccccc1)NC(=O)[C@H](CCC(=O)O)NC(=O)[C@H](CC(=O)N[C@@H]1O[C@H](CO)[C@@H](O[C@@H]2O[C@H](CO[C@]3(C(=O)O)C[C@H](O)[C@@H](NC(C)=O)[C@H]([C@H](O)[C@H](O)CO)O3)[C@H](O)[C@H](O)[C@H]2O)[C@H](O)[C@H]1NC(C)=O)NC(=O)[C@H](C)NC(=O)[C@H](C)NC(=O)[C@H](CCC(N)=O)NC(=O)CNC(=O)[C@H](CCC(=O)O)NC(=O)[C@H](CC(C)C)NC(=O)[C@H](Cc1ccc(O)cc1)NC(=O)[C@H](CO)NC(=O)[C@H](CO)NC(=O)[C@@H](NC(=O)[C@H](CC(=O)O)NC(=O)[C@H](CO)NC(=O)[C@@H](NC(=O)[C@H](Cc1ccccc1)NC(=O)[C@@H](NC(=O)CNC(=O)[C@H](CCC(=O)O)NC(=O)[C@H](C)NC(=O)[C@@H](N)Cc1c[nH]cn1)[C@@H](C)O)[C@@H](C)O)C(C)C)C(=O)N[C@@H](C)C(=O)N[C@@H](Cc1c[nH]c2ccccc12)C(=O)N[C@@H](CC(C)C)C(=O)N[C@H](C(=O)N[C@@H](CCCCN)C(=O)NCC(=O)N[C@@H](CCCNC(=N)N)C(=O)N[C@@H](CC(=O)N[C@@H]1O[C@H](CO)[C@@H](O[C@@H]2O[C@H](CO[C@]3(C(=O)O)C[C@H](O)[C@@H](NC(C)=O)[C@H]([C@H](O)[C@H](O)CO)O3)[C@H](O)[C@H](O)[C@H]2O)[C@H](O)[C@H]1NC(C)=O)C(N)=O)C(C)C [GL2637NS6]

Continued, molecule first:

Molecule	IC50 [1] [nM]	EC50 [2] [nM]
CC[C@H](C)[C@H](NC(=O)[C@H](Cc1ccccc1)NC(=O)[C@H](CCC(=O)O)NC(=O)[C@H](CCCCN)NC(=O)[C@H](C)NC(=O)[C@H](C)NC(=O)[C@H](CCC(N)=O)NC(=O)CNC(=O)[C@H](CCC(=O)O)NC(=O)[C@H](CC(C)C)NC(=O)[C@H](Cc1ccc(O)cc1)NC(=O)[C@H](CO)NC(=O)[C@H](CO)NC(=O)[C@@H](NC(=O)[C@H](CC(=O)O)NC(=O)[C@H](CO)NC(=O)[C@@H](NC(=O)[C@H](Cc1ccccc1)NC(=O)[C@@H](NC(=O)CNC(=O)[C@H](CCC(=O)O)NC(=O)[C@H](CC(=O)N[C@@H]1O[C@H](CO)[C@@H](O[C@@H]2O[C@H](CO)[C@H](O)[C@H](O)[C@H]2O)[C@H](O)[C@H]1NC(C)=O)NC(=O)[C@@H](N)Cc1c[nH]cn1)[C@@H](C)O)[C@@H](C)O)C(C)C)C(=O)N[C@@H](C)C(=O)N[C@@H](Cc1c[nH]c2ccccc12)C(=O)N[C@@H](CC(C)C)C(=O)N[C@H](C(=O)N[C@@H](CCCCN)C(=O)NCC(=O)N[C@@H](CCCNC(=N)N)C(N)=O)C(C)C [GL08NL]	> 100	284
CC[C@H](C)[C@H](NC(=O)[C@H](Cc1ccccc1)NC(=O)[C@H](CCC(=O)O)NC(=O)[C@H](CCCCN)NC(=O)[C@H](C)NC(=O)[C@H](C)NC(=O)[C@H](CCC(N)=O)NC(=O)CNC(=O)[C@H](CCC(=O)O)NC(=O)[C@H](CC(C)C)NC(=O)[C@H](Cc1ccc(O)cc1)NC(=O)[C@H](CO)NC(=O)[C@H](CO)NC(=O)[C@@H](NC(=O)[C@H](CC(=O)O)NC(=O)[C@H](CO)NC(=O)[C@@H](NC(=O)[C@H](Cc1ccccc1)NC(=O)[C@@H](NC(=O)CNC(=O)[C@H](CCC(=O)O)NC(=O)[C@H](C)NC(=O)[C@@H](N)Cc1c[nH]cn1)[C@@H](C)O)[C@@H](C)O)C(C)C)C(=O)N[C@@H](C)C(=O)N[C@@H](Cc1c[nH]c2ccccc12)C(=O)N[C@@H](CC(C)C)C(=O)N[C@H](C(=O)N[C@@H](CSCC(=O)N[C@@H](CC(=O)N[C@@H]1O[C@H](CO)[C@@H](O[C@@H]2O[C@H](CO)[C@@H](O[C@@H]3O[C@H](CO[C@H]4O[C@H](CO)[C@@H](O)[C@H](O)[C@@H]4O[C@@H]4O[C@H](CO)[C@@H](O[C@@H]5O[C@H](CO[C@]6(C(=O)O)C[C@H](O)[C@@H](NC(C)=O)[C@H]([C@H](O)[C@H](O)CO)O6)[C@H](O)[C@H](O)[C@H]5O)[C@H](O)[C@H]4NC(C)=O)[C@@H](O)[C@H](O[C@H]4O[C@H](CO)[C@@H](O)[C@H](O)[C@@H]4O[C@@H]4O[C@H](CO)[C@@H](O[C@@H]5O[C@H](CO[C@]6(C(=O)O)C[C@H](O)[C@@H](NC(C)=O)[C@H]([C@H](O)[C@H](O)CO)O6)[C@H](O)[C@H](O)[C@H]5O)[C@H](O)[C@H]4NC(C)=O)[C@@H]3O)[C@H](O)[C@H]2NC(C)=O)[C@H](O)[C@H]1NC(C)=O)C(=O)O)C(=O)NCC(=O)N[C@@H](CCCNC(=N)N)C(=O)N[C@@H](CSCC(=O)N[C@@H](CC(=O)N[C@@H]1O[C@H](CO)[C@@H](O[C@@H]2O[C@H](CO)[C@@H](O[C@@H]3O[C@H](CO[C@H]4O[C@H](CO)[C@@H](O)[C@H](O)[C@@H]4O[C@@H]4O[C@H](CO)[C@@H](O[C@@H]5O[C@H](CO[C@]6(C(=O)O)C[C@H](O)[C@@H](NC(C)=O)[C@H]([C@H](O)[C@H](O)CO)O6)[C@H](O)[C@H](O)[C@H]5O)[C@H](O)[C@H]4NC(C)=O)[C@@H](O)[C@H](O[C@H]4O[C@H](CO)[C@@H](O)[C@H](O)[C@@H]4O[C@@H]4O[C@H](CO)[C@@H](O[C@@H]5O[C@H](CO[C@]6(C(=O)O)C[C@H](O)[C@@H](NC(C)=O)[C@H]([C@H](O)[C@H](O)CO)O6)[C@H](O)[C@H](O)[C@H]5O)[C@H](O)[C@H]4NC(C)=O)[C@@H]3O)[C@H](O)[C@H]2NC(C)=O)[C@H](O)[C@H]1NC(C)=O)C(=O)O)C(N)=O)C(C)C [GL3437CE1]	30	4.1
CC[C@H](C)[C@H](NC(=O)[C@H](Cc1ccccc1)NC(=O)[C@H](CCC(=O)O)NC(=O)[C@H](CCCCN)NC(=O)[C@H](C)NC(=O)[C@H](C)NC(=O)[C@H](CCC(N)=O)NC(=O)CNC(=O)[C@H](CCC(=O)O)NC(=O)[C@H](CC(C)C)NC(=O)[C@H](Cc1ccc(O)cc1)NC(=O)[C@H](CO)NC(=O)[C@H](CO)NC(=O)[C@@H](NC(=O)[C@H](CC(=O)O)NC(=O)[C@H](CO)NC(=O)[C@@H](NC(=O)[C@H](Cc1ccccc1)NC(=O)[C@@H](NC(=O)CNC(=O)[C@H](CCC(=O)O)NC(=O)[C@H](C)NC(=O)[C@@H](N)Cc1c[nH]cn1)[C@@H](C)O)[C@@H](C)O)C(C)C)C(=O)N[C@@H](C)C(=O)N[C@@H](Cc1c[nH]c2ccccc12)C(=O)N[C@@H](CC(C)C)C(=O)N[C@H](C(=O)N[C@@H](CSCC(=O)N[C@@H](CC(=O)N[C@@H]1O[C@H](CO)[C@@H](O[C@@H]2O[C@H](CO)[C@@H](O[C@@H]3O[C@H](CO[C@H]4O[C@H](CO)[C@@H](O)[C@H](O)[C@@H]4O[C@@H]4O[C@H](CO)[C@@H](O[C@@H]5O[C@H](CO[C@]6(C(=O)O)C[C@H](O)[C@@H](NC(C)=O)[C@H]([C@H](O)[C@H](O)CO)O6)[C@H](O)[C@H](O)[C@H]5O)[C@H](O)[C@H]4NC(C)=O)[C@@H](O)[C@H](O[C@H]4O[C@H](CO)[C@@H](O)[C@H](O)[C@@H]4O[C@@H]4O[C@H](CO)[C@@H](O[C@@H]5O[C@H](CO[C@]6(C(=O)O)C[C@H](O)[C@@H](NC(C)=O)[C@H]([C@H](O)[C@H](O)CO)O6)[C@H](O)[C@H](O)[C@H]5O)[C@H](O)[C@H]4NC(C)=O)[C@@H]3O)[C@H](O)[C@H]2NC(C)=O)[C@H](O)[C@H]1NC(C)=O)C(=O)O)C(=O)NCC(=O)N[C@@H](CCCNC(=N)N)C(N)=O)C(C)C [GL34CE1]	3.5	0.72
